Assay results taken from PubChem BioAssay AID248 (DTP/NCI, 2004).
Where “and” joins values, the source holds several entries; their conditions need not be identical. Equal entries are not always repeated. Inconclusive results and toxic doses are left out.

Test system: L1210 leukemia ip in BDF1 mice, survival T/C
Test: NCI In Vivo Anticancer Drug Screen. Data for tumor model L1210 Leukemia (intraperitoneal) in B6D2F1 (BDF1) mice
Conditions: endpoint: mean survival time, higher = longer survival
Summary of the method: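 Survival endpoint. Drug-treated group vs vehicle group, expressed as T divided by C. Tumor passaged by transplantation.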

[1] = dose: 150.0 mg/kg/injection, schedule: Q01DX001 (ip), vehicle: saline
[2] = dose: 50.0 mg/kg/injection, schedule: Q01DX009 (ip), vehicle: Klucel (hydroxypropylcellulose) (HPC)
[3] = dose: 100.0 mg/kg/injection, schedule: Q01DX009 (ip), vehicle: Klucel (hydroxypropylcellulose) (HPC)
[4] = dose: 100.0 mg/kg/injection, schedule: Q01DX009 (ip), vehicle: saline
[5] = dose: 200.0 mg/kg/injection, schedule: Q01DX009 (ip), vehicle: saline
[6] = dose: 400.0 mg/kg/injection, schedule: Q01DX009 (ip), vehicle: saline
[7] = dose: 200.0 mg/kg/injection, schedule: Q01DX009 (ip), vehicle: Klucel (hydroxypropylcellulose) (HPC)
[8] = dose: 100.0 mg/kg/injection, schedule: Q04DX003 (ip), vehicle: Klucel (hydroxypropylcellulose) (HPC)
[9] = dose: 200.0 mg/kg/injection, schedule: Q04DX003 (ip), vehicle: Klucel (hydroxypropylcellulose) (HPC)
[10] = dose: 400.0 mg/kg/injection, schedule: Q01DX009 (ip), vehicle: Klucel (hydroxypropylcellulose) (HPC)
[11] = dose: 400.0 mg/kg/injection, schedule: Q04DX003 (ip), vehicle: Klucel (hydroxypropylcellulose) (HPC)

O=P(c1ccccc1)(c1ccccc1)N1CC1c1ccccc1 (centres undefined)
T/C (dose: 75.0 mg/kg/injection, schedule: Q01DX001 (ip), vehicle: carboxymethylcellulose (CMC)): 96 % of control | T/C (dose: 150.0 mg/kg/injection, schedule: Q01DX001 (ip), vehicle: carboxymethylcellulose (CMC)): 95 % of control | T/C (dose: 300.0 mg/kg/injection, schedule: Q01DX001 (ip), vehicle: carboxymethylcellulose (CMC)): 90 % of control

COc1cc(N(CCCl)CCCl)c(OC)cc1/C=N\Nc1nnc(C)n1N
T/C (dose: 2.5 mg/kg/injection, schedule: Q01DX015 (ip), vehicle: carboxymethylcellulose (CMC)): 115 % of control | T/C (dose: 5.0 mg/kg/injection, schedule: Q01DX015 (ip), vehicle: carboxymethylcellulose (CMC)): 121 % of control | T/C (dose: 10.0 mg/kg/injection, schedule: Q01DX015 (ip), vehicle: carboxymethylcellulose (CMC)): 155 % of control | T/C (dose: 30.0 mg/kg/injection, schedule: Q01DX015 (ip), vehicle: carboxymethylcellulose (CMC)): 103 % of control | T/C (dose: 44.0 mg/kg/injection, schedule: Q01DX001 (ip), vehicle: carboxymethylcellulose (CMC)): 103 % of control | T/C (dose: 50.0 mg/kg/injection, schedule: Q01DX001 (ip), vehicle: carboxymethylcellulose (CMC)): 120 % of control | T/C (dose: 67.0 mg/kg/injection, schedule: Q01DX001 (ip), vehicle: carboxymethylcellulose (CMC)): 115 % of control | T/C (dose: 100.0 mg/kg/injection, schedule: Q01DX001 (ip), vehicle: carboxymethylcellulose (CMC)): 161 % of control | T/C (dose: 400.0 mg/kg/injection, schedule: Q01DX001 (ip), vehicle: carboxymethylcellulose (CMC)): 97 % of control

CCCCCCCN=C(N)CSSCC(N)=NCCCCCCC
T/C (dose: 1.56 mg/kg/injection, schedule: Q04DX002 (ip), vehicle: saline with Tween-80): 101 % of control | T/C (dose: 3.13 mg/kg/injection, schedule: Q04DX002 (ip), vehicle: saline with Tween-80): 96 % of control | T/C (dose: 6.25 mg/kg/injection, schedule: Q04DX002 (ip), vehicle: saline with Tween-80): 108 % of control and 115 % of control

Cc1ccc(Cl)cc1N=C=S
T/C (dose: 75.0 mg/kg/injection, schedule: Q01DX001 (ip), vehicle: saline): 100 % of control | T/C [1]: 101 % of control | T/C (dose: 300.0 mg/kg/injection, schedule: Q01DX001 (ip), vehicle: saline): 106 % of control

CCCN1C(=O)CCC1=O
T/C (dose: 75.0 mg/kg/injection, schedule: Q04DX003 (ip), vehicle: saline): 109 % of control | T/C (dose: 150.0 mg/kg/injection, schedule: Q04DX003 (ip), vehicle: saline): 97 % of control | T/C (dose: 300.0 mg/kg/injection, schedule: Q04DX003 (ip), vehicle: saline): 101 % of control

Clc1ccc(SSC(Cl)(Cl)Cl)cc1
T/C (dose: 25.0 mg/kg/injection, schedule: Q01DX009 (ip), vehicle: Klucel (hydroxypropylcellulose) (HPC)): 98 % of control | T/C [2]: 88 % of control | T/C [3]: 93 % of control

CN(C)/N=C/c1ccccc1O
T/C [4]: 96 % of control | T/C [5]: 104 % of control | T/C [6]: 96 % of control

O=C(N/N=C/c1ccco1)c1cccnc1
T/C [3]: 97 % of control | T/C [7]: 101 % of control

CC(=O)NCS(=O)(=O)O
T/C [4]: 104 % of control | T/C [5]: 96 % of control

O=C(C(=O)c1cc(Br)ccc1O)c1cc(Br)ccc1O
T/C [3]: 96 % of control | T/C [8]: 93 % of control | T/C [7]: 100 % of control | T/C [9]: 97 % of control | T/C [10]: 94 % of control | T/C [11]: 95 % of control

COC(=O)N/N=C/Cc1ccccc1
T/C (dose: 25.0 mg/kg/injection, schedule: Q01DX009 (ip), vehicle: saline with Tween-80): 91 % of control | T/C (dose: 50.0 mg/kg/injection, schedule: Q01DX009 (ip), vehicle: saline with Tween-80): 90 % of control | T/C (dose: 100.0 mg/kg/injection, schedule: Q01DX009 (ip), vehicle: saline with Tween-80): 102 % of control

ONC12CCCCC1(Cl)CCCC2 (centres undefined)
T/C [1]: 94 % of control

O=C(c1ccccc1)C12CC3CC(CC(C3)C1)C2
T/C (dose: 75.0 mg/kg/injection, schedule: Q04DX003 (ip), vehicle: Klucel (hydroxypropylcellulose) (HPC)): 93 % of control | T/C (dose: 100.0 mg/kg/injection, schedule: Q01DX001 (ip), vehicle: Klucel (hydroxypropylcellulose) (HPC)): 96 % of control | T/C (dose: 150.0 mg/kg/injection, schedule: Q04DX003 (ip), vehicle: Klucel (hydroxypropylcellulose) (HPC)): 93 % of control | T/C (dose: 200.0 mg/kg/injection, schedule: Q01DX001 (ip), vehicle: Klucel (hydroxypropylcellulose) (HPC)): 100 % of control | T/C (dose: 300.0 mg/kg/injection, schedule: Q04DX003 (ip), vehicle: Klucel (hydroxypropylcellulose) (HPC)): 106 % of control | T/C (dose: 400.0 mg/kg/injection, schedule: Q01DX001 (ip), vehicle: Klucel (hydroxypropylcellulose) (HPC)): 105 % of control

OCCC#CCCCO
T/C [4]: 93 % of control | T/C [5]: 92 % of control | T/C [6]: 88 % of control

Brc1cc(Br)c2[nH]c3c(Br)cc(Br)cc3c2c1
T/C [3]: 101 % of control | T/C [7]: 102 % of control

C=CCNC(=O)SCCC(=O)O
T/C (dose: 100.0 mg/kg/injection, schedule: Q01DX001 (ip), vehicle: saline): 93 % of control | T/C (dose: 200.0 mg/kg/injection, schedule: Q01DX001 (ip), vehicle: saline): 100 % of control | T/C (dose: 400.0 mg/kg/injection, schedule: Q01DX001 (ip), vehicle: saline): 102 % of control

CCOC(=O)Nc1cc2ccncc2c2sc3ccccc3c12
T/C (dose: 100.0 mg/kg/injection, schedule: Q04DX003 (ip), vehicle: water): 92 % of control | T/C (dose: 200.0 mg/kg/injection, schedule: Q04DX003 (ip), vehicle: water): 87 % of control | T/C (dose: 400.0 mg/kg/injection, schedule: Q04DX003 (ip), vehicle: water): 101 % of control

CC(C)(C)C1CCC(NC(=O)c2ccccc2)CC1 (centres undefined)
T/C [3]: 108 % of control | T/C [8]: 102 % of control | T/C [7]: 109 % of control | T/C [9]: 98 % of control | T/C [10]: 86 % of control | T/C [11]: 100 % of control

CC(=O)CC(=O)Oc1ccccc1OC(C)=O
T/C [2]: 103 % of control | T/C [3]: 101 % of control | T/C [8]: 100 % of control | T/C [7]: 114 % of control | T/C [9]: 102 % of control

CCCCCCC(C)NCC(C)(C)OC(=O)c1ccc(N)cc1 (centres undefined)
T/C (dose: 75.0 mg/kg/injection, schedule: Q01DX001 (ip), vehicle: other): 93 % of control | T/C (dose: 150.0 mg/kg/injection, schedule: Q01DX001 (ip), vehicle: other): 101 % of control | T/C (dose: 300.0 mg/kg/injection, schedule: Q01DX001 (ip), vehicle: other): 93 % of control

CCOC(=O)Cc1cc(=O)[nH][nH]c1=O
T/C (dose: 150.0 mg/kg/injection, schedule: Q04DX002 (ip), vehicle: Klucel (hydroxypropylcellulose) (HPC)): 95 % of control | T/C (dose: 300.0 mg/kg/injection, schedule: Q04DX002 (ip), vehicle: Klucel (hydroxypropylcellulose) (HPC)): 95 % of control

FC(F)(F)c1ccc2c(c1)N(CCCN1CCN(CCOCCCl)CC1)c1ccccc1S2
T/C (dose: 0.19 mg/kg/injection, schedule: Q01DX009 (ip), vehicle: saline): 104 % of control | T/C (dose: 0.39 mg/kg/injection, schedule: Q01DX009 (ip), vehicle: saline): 94 % of control | T/C (dose: 0.78 mg/kg/injection, schedule: Q01DX009 (ip), vehicle: saline): 98 % of control | T/C (dose: 1.17 mg/kg/injection, schedule: Q04DX003 (ip), vehicle: saline): 101 % of control | T/C (dose: 1.56 mg/kg/injection, schedule: Q01DX009 (ip), vehicle: saline): 107 % of control | T/C (dose: 2.34 mg/kg/injection, schedule: Q04DX003 (ip), vehicle: saline): 95 % of control | T/C (dose: 3.12 mg/kg/injection, schedule: Q01DX009 (ip), vehicle: saline): 89 % of control | T/C (dose: 4.68 mg/kg/injection, schedule: Q04DX003 (ip), vehicle: saline): 98 % of control | T/C (dose: 6.25 mg/kg/injection, schedule: Q04DX003 (ip), vehicle: saline): 108 % of control | T/C (dose: 9.9 mg/kg/injection, schedule: Q01DX001 (ip), vehicle: saline): 97 % of control | T/C (dose: 12.5 mg/kg/injection, schedule: Q04DX003 (ip), vehicle: saline): 119 % of control | T/C (dose: 15.0 mg/kg/injection, schedule: Q01DX001 (ip), vehicle: saline): 102 % of control | T/C (dose: 22.5 mg/kg/injection, schedule: Q01DX001 (ip), vehicle: saline): 103 % of control | T/C (dose: 25.0 mg/kg/injection, schedule: Q04DX003 (ip), vehicle: saline): 122 % of control | T/C (dose: 50.0 mg/kg/injection, schedule: Q04DX003 (ip), vehicle: saline): 90 % of control
